The source of these data is ChEMBL document CHEMBL1135433 (J Med Chem, 2002).

This assay in a line: Concentration required for 50% inhibition of Shiga-like toxin type 1 (Stx1A1).
For `Cc1nc2c(=O)[nH]c(N)nc2o1`, the half-inhibitory concentration (IC50) – broadly, the midpoint of a concentration-inhibition curve – turned out to be 1000 µM.

Regarding `Cc1cc2c(O)[nH]c(N)nc-2n1`, the IC50 stood at 4300 µM.

Regarding `Nc1nc2c(c(=O)[nH]1)CC=N2`, the IC50 worked out at 2000 µM.

Turning to `Nc1nc(O)c2nc(CNc3ccc(C(=O)O)cc3)cnc2n1` [PTEROIC ACID], the midpoint of inhibition, the IC50, lay at 600 µM.
